Test results reported in patent publication US20210121426A1, “BLOOD PURIFICATION BY ALKALINIZING AGENT” (TOHOKU UNIVERSITY, priority 2017, published 2021).
Marks after values point to notes of the source that are not given here.

Assays:
p-cresyl sulfate = assay: Human clinical trial in CKD patients: p-cresyl sulfate in plasma and early morning urine (LC-MS/MS); format: in vivo; set-up: key to Influence on concentration of PCS / Influence on PCS U/P ratio: Excellent effects: ◯; Poor effects: X; No significant difference: —; (◯): whether or not there is an effect of promoting excretion of indoxyl sulfate into the urine cannot be determined
Procedure: (§1) 1. […] Patients were assigned to each group so that age, sex, presence of diabetes, and eGFR were not biased. Each group was treated according to the “CKD medical care guide-summary of treatment” (hereinafter referred to as standard treatment).
(§2) An alkalinizing agent was not administered to the control group. […] A pH of early morning urine was controlled over time so that the dosage could be increased up to 6 tablets, 3 times a day (morning, noon, evening) as needed according to the discretion of the physician in cases where a pH of early morning urine was less than pH 6.5. To the group B, 3 tablets a day in which each tablet contained 500 mg of sodium bicarbonate were orally administered 3 times a day (morning, noon, evening) for 24 weeks. A pH of early morning urine was controlled over time so that the dosage could be increased up to 6 tablets, 3 times a day (morning, noon, evening) as needed according to the discretion of the physician in cases where a pH of early morning urine was less than pH 6.5.
(§3) Early morning urine and blood were collected before the start of administration, and 6 weeks, 12 weeks, and 24 weeks after the start of administration, and each specimen was stored at −80° C. Methods used in the present field for indoxyl sulfate, p-cresyl sulfate, phenylacetyl-L-glutamine, hippuric acid, and argininosuccinic acid in urine and blood (Sato, E., et. al., Metabolic alteration by indoxyl sulfate in skeletal muscle induce uremic sarcopenia in chronic kidney disease., Sci Rep. 2016 Nov. 10; 6:36618. doi: 10.1038/srep36618, and the like) were referred to, and quantitative analysis was performed using the following liquid chromatography triple quadrupole mass spectrometer (LC-MS/MS).
(§4) For LC, NANOSPACE SI-2 (manufactured by Shiseido) was used, and […] MGM was selected as the analytical column.
(§5) For MS, TSQ Quantiva (manufactured by Thermo Fisher Scientific Co., Ltd.) was used, and five compounds were ionized in the negative mode and detected using the Selected Reaction Monitoring method. The quantitative value was calculated using a calibration curve prepared with a standard solution of each compound.
(§6) For statistical analysis, the Mann-Whitney test was used for comparison between groups, and the Wilcoxon test was used for comparison of changes over time. The Pearson test was used for correlation.
(§7) Then, the average value and SD of each group were calculated for (i) to (ix) above. For each of (iv) to (ix) above, the average value and SD of each group were calculated for all data of 6 weeks, 12 weeks, and 24 weeks after the start of administration in each group.

indoxyl sulfate = assay: Human clinical trial in CKD patients: indoxyl sulfate in plasma and early morning urine (LC-MS/MS); format: in vivo; set-up: key to Influence on concentration of IS / Influence on IS U/P ratio: Excellent effects: ◯; Poor effects: X; No significant difference: —; (◯): whether or not there is an effect of promoting excretion of indoxyl sulfate into the urine cannot be determined
Procedure: as §1, §2, §3, §4, §5, §6, §7

[1] = 0 W, before the start of administration
[2] = 6-24 W, all data of 6, 12 and 24 weeks
[3] = Plasma, comparison with reference drug
[4] = Urine, comparison with reference drug
[5] = compared to before administration

O=C([O-])O.[Na+] [Bicarbonate, sodium bicarbonate]
Plasma p-Cresyl Sulfate (p-cresyl sulfate; [1]): 5402 ± 5209 ng/mL
Urine p-Cresyl Sulfate (early morning urine) (p-cresyl sulfate; [1]): 66164 ± 97704 ng/mL
p-Cresyl Sulfate-Urine/Plasma ratio (p-cresyl sulfate; [1]): 15.6 ± 11.1
Plasma p-Cresyl Sulfate (p-cresyl sulfate; [2]): 4187 ± 4354 ng/mL
Plasma p-Cresyl Sulfate, change from week 0 (p-cresyl sulfate; [2]): -1038 ± 2773 ng/mL
Urine p-Cresyl Sulfate (early morning urine) (p-cresyl sulfate; [2]): 52501 ± 73583 ng/mL
Urine p-Cresyl Sulfate, change from week 0 (p-cresyl sulfate; [2]): -13663 ± 74566 ng/mL
p-Cresyl Sulfate-Urine/Plasma ratio (p-cresyl sulfate; [2]): 16.8 ± 13.9 ^d
p-Cresyl Sulfate-Urine/Plasma ratio, change from week 0 (p-cresyl sulfate; [2]): 1.20 ± 11.45
Plasma p-Cresyl Sulfate (p-cresyl sulfate; 6 W): 4506 ± 5300 ng/mL
Plasma p-Cresyl Sulfate, change from week 0 (p-cresyl sulfate; 6 W): -895.9 ± 2153 ng/mL
Urine p-Cresyl Sulfate (early morning urine) (p-cresyl sulfate; 6 W): 67744 ± 105548 ng/mL
Urine p-Cresyl Sulfate, change from week 0 (p-cresyl sulfate; 6 W): 1580 ± 51468 ng/mL
p-Cresyl Sulfate-Urine/Plasma ratio (p-cresyl sulfate; 6 W): 17.0 ± 12.0
p-Cresyl Sulfate-Urine/Plasma ratio, change from week 0 (p-cresyl sulfate; 6 W): 1.39 ± 8.25
Plasma p-Cresyl Sulfate (p-cresyl sulfate; 12 W): 3771 ± 4139 ng/mL
Plasma p-Cresyl Sulfate, change from week 0 (p-cresyl sulfate; 12 W): -1103 ± 2478 ng/mL
Urine p-Cresyl Sulfate (early morning urine) (p-cresyl sulfate; 12 W): 37730 ± 48411 ng/mL
Urine p-Cresyl Sulfate, change from week 0 (p-cresyl sulfate; 12 W): -28434 ± 72253 ng/mL
p-Cresyl Sulfate-Urine/Plasma ratio (p-cresyl sulfate; 12 W): 16.5 ± 17.9
p-Cresyl Sulfate-Urine/Plasma ratio, change from week 0 (p-cresyl sulfate; 12 W): 0.91 ± 15.68
Plasma p-Cresyl Sulfate (p-cresyl sulfate; 24 W): 4284 ± 3682 ng/mL
Plasma p-Cresyl Sulfate, change from week 0 (p-cresyl sulfate; 24 W): -1119 ± 3631 ng/mL
Urine p-Cresyl Sulfate (early morning urine) (p-cresyl sulfate; 24 W): 52029 ± 57779 ng/mL
Urine p-Cresyl Sulfate, change from week 0 (p-cresyl sulfate; 24 W): -14163 ± 95244 ng/mL
p-Cresyl Sulfate-Urine/Plasma ratio (p-cresyl sulfate; 24 W): 17.0 ± 11.8 ^c
p-Cresyl Sulfate-Urine/Plasma ratio, change from week 0 (p-cresyl sulfate; 24 W): 1.31 ± 9.81
Influence on concentration of PCS (p-cresyl sulfate; Plasma, comparison with Cont): —
Influence on concentration of PCS (p-cresyl sulfate; [3]): ◯
Influence on PCS U/P ratio (p-cresyl sulfate; comparison with Cont): ◯
Influence on PCS U/P ratio (p-cresyl sulfate; comparison with reference drug): —
Influence on concentration of PCS (p-cresyl sulfate; Urine, comparison with Cont): —
Influence on concentration of PCS (p-cresyl sulfate; [4]): X
concentration of p-cresyl sulfate in plasma (p-cresyl sulfate; [5]): decreased
concentration of p-cresyl sulfate in urine (p-cresyl sulfate; [5]): such an effect was not recognized
Indoxyl Sulfate-Urine/Plasma ratio (indoxyl sulfate; [1]): 55.5 ± 43.6
Plasma Indoxyl Sulfate (indoxyl sulfate; [1]): 1338 ± 770 ng/mL
Urine Indoxyl Sulfate (early morning urine) (indoxyl sulfate; [1]): 54379 ± 40259 ng/mL
Indoxyl Sulfate-Urine/Plasma ratio (indoxyl sulfate; [2]): 46.2 ± 33.7^d
Indoxyl Sulfate-Urine/Plasma ratio, change from week 0 (indoxyl sulfate; [2]): −10.33 ± 36.35
Plasma Indoxyl Sulfate (indoxyl sulfate; [2]): 1426 ± 930 ng/mL
Plasma Indoxyl Sulfate, change from week 0 (indoxyl sulfate; [2]): 107.0 ± 695.8 ng/mL
Urine Indoxyl Sulfate (early morning urine) (indoxyl sulfate; [2]): 48954 ± 35769^d ng/mL
Urine Indoxyl Sulfate, change from week 0 (indoxyl sulfate; [2]): -5425 ± 38514 ng/mL
Indoxyl Sulfate-Urine/Plasma ratio (indoxyl sulfate; 6 W): 51.7 ± 36.4
Indoxyl Sulfate-Urine/Plasma ratio, change from week 0 (indoxyl sulfate; 6 W): −3.81 ± 37.48
Plasma Indoxyl Sulfate (indoxyl sulfate; 6 W): 1365 ± 821 ng/mL
Plasma Indoxyl Sulfate, change from week 0 (indoxyl sulfate; 6 W): 27.5 ± 523.0 ng/mL
Urine Indoxyl Sulfate (early morning urine) (indoxyl sulfate; 6 W): 52510 ± 39229 ng/mL
Urine Indoxyl Sulfate, change from week 0 (indoxyl sulfate; 6 W): -1869 ± 19390 ng/mL
Indoxyl Sulfate-Urine/Plasma ratio (indoxyl sulfate; 12 W): 35.3 ± 26.4
Indoxyl Sulfate-Urine/Plasma ratio, change from week 0 (indoxyl sulfate; 12 W): −22.41 ± 35.49
Plasma Indoxyl Sulfate (indoxyl sulfate; 12 W): 1432 ± 1031 ng/mL
Plasma Indoxyl Sulfate, change from week 0 (indoxyl sulfate; 12 W): 153.1 ± 887.4 ng/mL
Urine Indoxyl Sulfate (early morning urine) (indoxyl sulfate; 12 W): 37860 ± 26401 ng/mL
Urine Indoxyl Sulfate, change from week 0 (indoxyl sulfate; 12 W): -16519 ± 40380 ng/mL
Indoxyl Sulfate-Urine/Plasma ratio (indoxyl sulfate; 24 W): 50.7 ± 36.5^c
Indoxyl Sulfate-Urine/Plasma ratio, change from week 0 (indoxyl sulfate; 24 W): −4.78 ± 35.33
Plasma Indoxyl Sulfate (indoxyl sulfate; 24 W): 1481 ± 988 ng/mL
Plasma Indoxyl Sulfate, change from week 0 (indoxyl sulfate; 24 W): 143.4 ± 682.5 ng/mL
Urine Indoxyl Sulfate (early morning urine) (indoxyl sulfate; 24 W): 56492 ± 39593 ng/mL
Urine Indoxyl Sulfate, change from week 0 (indoxyl sulfate; 24 W): 2113 ± 49356 ng/mL
Influence on concentration of IS (indoxyl sulfate; Plasma, comparison with Cont): —
Influence on concentration of IS (indoxyl sulfate; [3]): X
Influence on IS U/P ratio (indoxyl sulfate; comparison with Cont): ◯
Influence on IS U/P ratio (indoxyl sulfate; comparison with reference drug): X
Influence on concentration of IS (indoxyl sulfate; Urine, comparison with Cont): (◯)
Influence on concentration of IS (indoxyl sulfate; [4]): X
concentration of indoxyl sulfate in blood (indoxyl sulfate; [5]): such an effect was not recognized
concentration of indoxyl sulfate in urine (indoxyl sulfate; [5]): such an effect was not recognized
